Columns and labels:
Format in all cases: cell-based
E. coli Juhl A15119 = assay: MIC by two-fold agar dilution; details: Mueller-Hinton agar, unit assumed
E. cloacae A21006 = assay: MIC by two-fold agar dilution; details: Mueller-Hinton agar, unit assumed
B. cereus ATCC 10702A = assay: MIC by two-fold agar dilution; details: Mueller-Hinton agar, unit assumed
Mycobacterium 607, D47 = assay: MIC by two-fold agar dilution; details: Medium #1001, unit assumed
[1] = system: C. tropicalis #125 A15051; assay: MIC by two-fold agar dilution; details: Ct-4 C. tropicalis #125 A15051; sabouraud agar; unit assumed
S. aureus BX-1633,A9606 = assay: MIC by two-fold agar dilution; details: Mueller-Hinton agar, unit assumed
P. citrinum IAM 7008 = assay: MIC by two-fold agar dilution; details: Pt-1 P. citrinum IAM 7008; sabouraud agar; unit assumed
S. aureus #193 = assay: MIC by two-fold agar dilution; details: Mueller-Hinton agar, unit assumed
S. aureus 209P = assay: MIC by two-fold agar dilution; details: Mueller-Hinton agar, unit assumed
T. mentagrophytes D-155 = assay: MIC by two-fold agar dilution; details: Tm-1 T. mentagrophytes D-155; sabouraud agar; unit assumed
E. coli A20732 = assay: MIC by two-fold agar dilution; details: Mueller-Hinton agar, unit assumed
C. lunata ATCC 13432 = assay: MIC by two-fold agar dilution; details: Cl-1 C. lunata ATCC 13432; sabouraud agar; unit assumed
S. cerevisiae ATCC 9763 = assay: MIC by two-fold agar dilution; details: Sc-1 S. cerevisiae ATCC 9763; sabouraud agar; unit assumed
[2] = system: F. moniliforme NRRL A2284; assay: MIC by two-fold agar dilution; details: Fm-1 F. moniliforme NRRL A2284; sabouraud agar; unit assumed
M. canis D-51 = assay: MIC by two-fold agar dilution; details: Mc-1 M. canis D-51; sabouraud agar; unit assumed
A. fumigatus IAM 2530 = assay: MIC by two-fold agar dilution; details: Af-1 A. fumigatus IAM 2530; sabouraud agar; unit assumed
S. marcescens A20333 = assay: MIC by two-fold agar dilution; details: Mueller-Hinton agar, unit assumed
C. albicans Nystatin-R = assay: MIC by two-fold agar dilution; details: Ca-2 C. albicans Nystatin-R; sabouraud agar; unit assumed
K. pneumoniae A20680 = assay: MIC by two-fold agar dilution; details: Mueller-Hinton agar, unit assumed
Hormodendrum sp. = assay: MIC by two-fold agar dilution; details: Hy-1 Hormodendrum sp.; sabouraud agar; unit assumed
C. krusei #96 A15052 = assay: MIC by two-fold agar dilution; details: Ck-2 C. krusei #96 A15052; sabouraud agar; unit assumed
E. coli K-12 A9632 = assay: MIC by two-fold agar dilution; details: Mueller-Hinton agar, unit assumed
Verticillium sp. = assay: MIC by two-fold agar dilution; details: Vx-1 Verticillium sp.; sabouraud agar; unit assumed
E. coli A20683 = assay: MIC by two-fold agar dilution; details: Mueller-Hinton agar, unit assumed
B. anthracis 115 = details: Mueller-Hinton agar, unit assumed
M. flavus D12 = assay: MIC by two-fold agar dilution; details: Mueller-Hinton agar, unit assumed
Mucor sp. = assay: MIC by two-fold agar dilution; details: My-1 Mucor sp.; sabouraud agar; unit assumed
S. marcescens A20019 = assay: MIC by two-fold agar dilution; details: Mueller-Hinton agar, unit assumed

Phleomycin [reference compound]
MIC (E. coli Juhl A15119): 1.6 µg/mL | MIC (E. cloacae A21006): 50 µg/mL | MIC (B. cereus ATCC 10702A): 0.2 µg/mL | MIC (Mycobacterium 607, D47): 0.2 µg/mL | MIC [1]: 6.3 µg/mL | MIC (S. aureus BX-1633,A9606): 0.4 µg/mL | MIC (P. citrinum IAM 7008): 3.1 µg/mL | MIC (S. aureus #193): 0.2 µg/mL | MIC (S. aureus 209P): 0.2 µg/mL | MIC (T. mentagrophytes D-155): 12.5 µg/mL | MIC (E. coli A20732): 1.6 µg/mL | MIC (C. lunata ATCC 13432): 0.4 µg/mL | MIC (S. cerevisiae ATCC 9763): 0.8 µg/mL | MIC [2]: 12.5 µg/mL | MIC (M. canis D-51): 6.3 µg/mL | MIC (A. fumigatus IAM 2530): 0.8 µg/mL | MIC (S. marcescens A20333): 0.8 µg/mL | MIC (C. albicans Nystatin-R): 1.6 µg/mL | MIC (K. pneumoniae A20680): > 100 µg/mL | MIC (Hormodendrum sp.): 0.8 µg/mL | MIC (C. krusei #96 A15052): 0.8 µg/mL | MIC (E. coli K-12 A9632): 1.6 µg/mL | MIC (Verticillium sp.): 6.3 µg/mL | MIC (E. coli A20683): > 100 µg/mL | MIC (B. anthracis 115): 0.4 µg/mL | MIC (M. flavus D12): 0.2 µg/mL | MIC (Mucor sp.): 3.1 µg/mL | MIC (S. marcescens A20019): 0.8 µg/mL
